Paper PMC12486440, “Design, synthesis, and in silico studies of new benzofuran–pyrazole hybrids as multi-kinase inhibitors with potential antiproliferative activity” (RSC Advances, 2025)

What was measured:
Leukemia subpanel = test: NCI 60 subpanel summary; type: cell-based, human
Colon cancer subpanel = test: NCI 60 subpanel summary; type: cell-based, human
CNS cancer subpanel = test: NCI 60 subpanel summary; type: cell-based, human
Renal cancer subpanel = test: NCI 60 subpanel summary; type: cell-based, human
B-Raf (V600E) = B-Raf (V600E) (Homo sapiens, UniProt P15056, V600E); test: B-Raf kinase inhibitory assay (Kinase-Glo Max); type: biochemical
Procedure: B-Raf Kinase inhibitory assay
All samples and controls were tested in
Luminescence was measured using the microplate reader.

VEGFR-2 = biological target: T1, VEGFR-2 (Homo sapiens, UniProt P35968); test: VEGFR-2 kinase inhibitory assay (Kinase-Glo MAX); type: biochemical
T1 construct: purchased

CCRF-CEM = conditions: Homo sapiens, CCRF-CEM
RPMI-8226 = conditions: Homo sapiens, RPMI-8226
NCI/ADR-RES = conditions: Homo sapiens, NCI/ADR-RES
MDA-MB-468 = conditions: single dose 10 μM; breast carcinoma
[1] = Homo sapiens, subpanel mean graph midpoint, read-out: MG-MID (GI50)
[2] = full panel MG-MID / subpanel MG-MID
[3] = single dose 10 μM, non-small lung carcinoma
[4] = single dose 10 μM, colon cancer
[5] = single dose 10 μM, ovarian carcinoma
[6] = single dose 10 μM, renal carcinoma

T1 sequence (P35968 20-1356): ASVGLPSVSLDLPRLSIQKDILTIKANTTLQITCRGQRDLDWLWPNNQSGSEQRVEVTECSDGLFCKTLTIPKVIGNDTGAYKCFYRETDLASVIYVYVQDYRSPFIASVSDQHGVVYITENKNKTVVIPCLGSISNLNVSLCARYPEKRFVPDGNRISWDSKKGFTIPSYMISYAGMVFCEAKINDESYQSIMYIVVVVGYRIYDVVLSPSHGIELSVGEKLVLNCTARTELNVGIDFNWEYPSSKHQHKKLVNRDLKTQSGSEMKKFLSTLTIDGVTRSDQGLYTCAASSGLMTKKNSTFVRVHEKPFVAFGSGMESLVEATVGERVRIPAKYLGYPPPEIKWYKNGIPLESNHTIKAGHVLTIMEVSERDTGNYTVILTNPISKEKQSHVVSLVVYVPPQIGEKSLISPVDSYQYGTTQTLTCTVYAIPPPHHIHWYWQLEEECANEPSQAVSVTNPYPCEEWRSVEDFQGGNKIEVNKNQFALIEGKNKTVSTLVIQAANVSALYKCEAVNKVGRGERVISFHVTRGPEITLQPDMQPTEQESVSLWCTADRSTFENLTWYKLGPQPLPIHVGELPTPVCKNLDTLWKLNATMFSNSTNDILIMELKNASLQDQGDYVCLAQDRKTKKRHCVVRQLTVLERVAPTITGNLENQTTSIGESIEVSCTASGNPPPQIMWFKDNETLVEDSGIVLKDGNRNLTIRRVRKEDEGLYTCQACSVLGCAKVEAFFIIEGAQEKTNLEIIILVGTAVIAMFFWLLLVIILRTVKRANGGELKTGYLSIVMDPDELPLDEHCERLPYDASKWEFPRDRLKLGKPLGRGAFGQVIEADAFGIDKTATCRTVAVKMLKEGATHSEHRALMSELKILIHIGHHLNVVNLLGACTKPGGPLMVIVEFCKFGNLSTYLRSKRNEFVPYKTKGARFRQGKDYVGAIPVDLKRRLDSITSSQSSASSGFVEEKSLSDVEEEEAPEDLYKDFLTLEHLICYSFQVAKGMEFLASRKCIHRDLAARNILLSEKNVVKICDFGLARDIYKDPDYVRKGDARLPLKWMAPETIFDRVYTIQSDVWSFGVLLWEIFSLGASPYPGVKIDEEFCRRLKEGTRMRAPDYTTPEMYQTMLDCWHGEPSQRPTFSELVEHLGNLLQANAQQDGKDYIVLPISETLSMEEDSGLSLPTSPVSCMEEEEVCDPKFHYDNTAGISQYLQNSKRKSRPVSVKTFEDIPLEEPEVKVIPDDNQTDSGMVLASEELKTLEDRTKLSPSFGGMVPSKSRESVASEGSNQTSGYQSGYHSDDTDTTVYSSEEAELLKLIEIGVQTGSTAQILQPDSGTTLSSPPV
B-Raf (V600E), sequence (P15056 whole entry V600E): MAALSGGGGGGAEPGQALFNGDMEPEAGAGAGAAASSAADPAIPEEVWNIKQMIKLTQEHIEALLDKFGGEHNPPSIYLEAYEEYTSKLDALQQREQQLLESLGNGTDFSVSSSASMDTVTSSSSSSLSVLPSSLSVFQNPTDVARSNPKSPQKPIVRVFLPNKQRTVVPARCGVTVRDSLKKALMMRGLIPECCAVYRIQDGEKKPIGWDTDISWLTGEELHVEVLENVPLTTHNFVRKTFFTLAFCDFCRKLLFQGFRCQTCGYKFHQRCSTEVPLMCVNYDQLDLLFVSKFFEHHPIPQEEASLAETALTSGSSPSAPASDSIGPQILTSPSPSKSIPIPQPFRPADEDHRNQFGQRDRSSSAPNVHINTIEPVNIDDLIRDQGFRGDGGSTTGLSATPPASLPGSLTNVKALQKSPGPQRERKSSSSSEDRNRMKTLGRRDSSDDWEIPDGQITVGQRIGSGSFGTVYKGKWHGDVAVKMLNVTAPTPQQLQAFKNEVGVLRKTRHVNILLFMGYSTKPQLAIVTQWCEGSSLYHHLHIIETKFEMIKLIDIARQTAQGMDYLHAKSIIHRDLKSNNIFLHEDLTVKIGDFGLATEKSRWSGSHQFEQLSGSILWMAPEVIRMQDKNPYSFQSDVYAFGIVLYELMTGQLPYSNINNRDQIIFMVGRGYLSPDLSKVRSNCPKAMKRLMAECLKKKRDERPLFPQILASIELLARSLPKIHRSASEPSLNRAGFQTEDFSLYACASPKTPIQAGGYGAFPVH

With `c1ccc(-n2cc(C3CC(c4nc5ccccc5[nH]4)=NN3)c(-c3cc4ccccc4o3)n2)cc1` (stereo not shown) [3d, 3-(Benzofuran-2-yl)-4-(3-(1H-benzo[d]imidazol-2-yl)-4,5-dihydro-1H-pyrazol-5-yl)-1-phenyl-1H-pyrazole] the GI50 (Leukemia subpanel; [1]) was 3.23 µM, the Selectivity index (Leukemia subpanel; [2]) was 1.30 and the GI50 (Colon cancer subpanel; [1]) was 5.02 µM. The Selectivity index (Colon cancer subpanel; [2]) was 0.83, the GI50 (CNS cancer subpanel; [1]) was 3.55 µM and the Selectivity index (CNS cancer subpanel; [2]) was 1.18. For the same compound, the GI50 (Renal cancer subpanel; [1]) was 4.93 µM, the Selectivity index (Renal cancer subpanel; [2]) was 0.85 and the IC50 (B-Raf (V600E)) was 0.175 µM. For the same compound, the “times less sensitive, B-Raf (V600E), than to vemurafenib” value (B-Raf (V600E); ratio of IC50 values) was 2.8, the IC50 (VEGFR-2) was 0.619 µM and the “times more effective at suppressing VEGFR-2 than sorafenib” value (VEGFR-2; ratio of IC50 values) was 4.1. It also gave a GI50 (CCRF-CEM) of 3.11 µM, a GI50 (K-562; Homo sapiens, K562) of 3.37 µM and a GI% (K-562; single dose 10 μM, leukemia) of 92.52%. The GI50 (MOLT-4; Homo sapiens, MOLT-4) was 4.13 µM, the GI% (MOLT-4; single dose 10 μM, leukemia) was 88.75% and the GI50 (RPMI-8226) was 3.04 µM. The GI50 (SR; Homo sapiens, SR) was 3.15 µM, the GI% (SR; single dose 10 μM, leukemia) was 91.17% and the GI50 (A549/ATCC; Homo sapiens, A549) was 3.86 µM. The GI% (A549/ATCC; [3]) was 87.82%, the GI50 (EKVX; Homo sapiens, EKVX) was 2.69 µM and the GI% (EKVX; [3]) was 78.25%. The GI50 (HOP-62; Homo sapiens, HOP-62) was 3.66 µM, the GI% (HOP-62; [3]) was 74.46% and the GI50 (NCI-H226; Homo sapiens, NCI-H226) was 6.62 µM. The GI% (NCI-H226; [3]) was 34.35%, the GI50 (NCI-H522; Homo sapiens, NCI-H522) was 3.48 µM and the GI% (NCI-H522; [3]) was 96.77%. It also gave a GI50 (HCC-2998; Homo sapiens, HCC 2998) of 5.25 µM, a GI% (HCC-2998; [4]) of 70.76% and a GI50 (HCT-116; Homo sapiens, HCT-116) of 5.46 µM. For the same compound, the GI% (HCT-116; [4]) was 76.76%, the GI50 (SF-268; Homo sapiens, SF-268) was 4.51 µM and the GI% (SF-268; single dose 10 μM, CNS cancer) was 72.21%. It also gave a GI50 (SF-295; Homo sapiens, SF-295) of 2.59 µM, a GI% (SF-295; single dose 10 μM, CNS cancer) of 84.73% and a GI50 (U251; Homo sapiens, U-251) of 3.72 µM. The GI% (U251; single dose 10 μM, CNS cancer) was 85.69%, the GI50 (M14; Homo sapiens, M14) was 3.22 µM and the GI% (M14; single dose 10 μM, melanoma) was 83.05%. It also gave a GI50 (MDA-MB-435; Homo sapiens, MDA-MB-435) of 4.24 µM, a GI% (MDA-MB-435; single dose 10 μM, melanoma) of 83.49% and a GI50 (SK-MEL-28; Homo sapiens, SK-MEL-28) of 4.58 µM. For the same compound, the GI% (SK-MEL-28; single dose 10 μM, melanoma) was 80.99%, the GI50 (SK-MEL-5; Homo sapiens, SK-MEL-5) was 2.76 µM and the GI% (SK-MEL-5; single dose 10 μM, melanoma) was 90.42%. The GI50 (UACC-257; Homo sapiens, UACC-257) was 6.24 µM, the GI% (UACC-257; single dose 10 μM, melanoma) was 79.15% and the GI50 (IGROV1; Homo sapiens, IGROV-1) was 3.34 µM. The GI% (IGROV1; [5]) was 89.61%, the GI50 (OVCAR-4; Homo sapiens, OVCAR-4) was 3.51 µM and the GI% (OVCAR-4; [5]) was 66.52%. The GI50 (NCI/ADR-RES) was 3.16 µM, the GI50 (786–0; Homo sapiens, 786-0) was 4.31 µM and the GI% (786–0; [6]) was 71.73%. For the same compound, the GI50 (ACHN; Homo sapiens, ACHN) was 3.11 µM, the GI% (ACHN; [6]) was 92.45% and the GI50 (CAKI-1; Homo sapiens, CAKI-1) was 2.57 µM. The GI% (CAKI-1; [6]) was 92.45%, the GI50 (MCF7; Homo sapiens, MCF7) was 2.75 µM and the GI% (MCF7; single dose 10 μM, breast carcinoma) was 85.98%. The GI% (MDA-MB-468) was 70.95%.
